Test system: 883617-216-R-J1-PDC tumor spheroids, viability
Assay: Anticancer human tumor 883617-216-R-J1-PDC patient-derived bladder carcinoma cell line growth inhibition [PI3K]
Conditions: spheroids with HUVEC and MSC; for IC50: curve of first compound; for viability, T/C: stronger effect = lower value; active = viability on the fitted dose curve at most 10% of control; inactive = the rest
How it was run: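 Complex 3D spheroids (cancer cells + endothelial HUVEC + mesenchymal stem cells); drug pairs of targeted agent x inavolisib/alpelisib/duvelisib/copanlisib; half-log series from ~Cmax, max 10 microM if Cmax unknown; endpoint viability.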

[1] = second compound 0.0316 µM, first compound 0.0316 µM
[2] = second compound 0.0316 µM, first compound 0.1 µM
[3] = second compound 0.1 µM, first compound 0.0316 µM
[4] = second compound 0.1 µM, first compound 0.1 µM
[5] = second compound 0.316 µM, first compound 0.0316 µM
[6] = second compound 0.316 µM, first compound 0.1 µM
[7] = second compound 1 µM, first compound 0.0316 µM
[8] = second compound 1 µM, first compound 0.1 µM
[9] = second compound 3.16 µM, first compound 0.0316 µM
[10] = second compound 3.16 µM, first compound 0.1 µM
[11] = second compound 10 µM, first compound 0.0316 µM
[12] = second compound 10 µM, first compound 0.1 µM
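Also: spheroids exposed to agents for 7 days before the viability read.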

CC(C)NCC(C(=O)N1CCN(c2ncnc3c2C(C)CC3O)CC1)c1ccc(Cl)cc1 (centres undefined) + CC(Nc1ncnc2nc[nH]c12)c1cc2cccc(Cl)c2c(=O)n1-c1ccccc1
492 nM: IC50 (second compound 0.316 µM)
345 nM: IC50 (second compound 3.16 µM)
inactive: viability, T/C [1] 87.6% | viability, T/C [2] 84.8% | viability, T/C (second compound 0.0316 µM, first compound 0.316 µM) 55% | viability, T/C (second compound 0.0316 µM, first compound 1 µM) 39.7% | viability, T/C (second compound 0.0316 µM, first compound 3.16 µM) 17.8% | viability, T/C [3] 78.2% | viability, T/C [4] 76% | viability, T/C (second compound 0.1 µM, first compound 0.316 µM) 59.9% | viability, T/C (second compound 0.1 µM, first compound 1 µM) 38.7% | viability, T/C (second compound 0.1 µM, first compound 3.16 µM) 18.9% | viability, T/C [5] 97.8% | viability, T/C [6] 78.8% | viability, T/C (second compound 0.316 µM, first compound 0.316 µM) 60.9% | viability, T/C (second compound 0.316 µM, first compound 1 µM) 35.4% | viability, T/C (second compound 0.316 µM, first compound 3.16 µM) 17.8% | viability, T/C [7] 69.1% | viability, T/C [8] 81.1% | viability, T/C (second compound 1 µM, first compound 0.316 µM) 52.4% | viability, T/C (second compound 1 µM, first compound 1 µM) 40% | viability, T/C (second compound 1 µM, first compound 3.16 µM) 17.1% | viability, T/C [9] 64% | viability, T/C [10] 53.8% | viability, T/C (second compound 3.16 µM, first compound 0.316 µM) 55.2% | viability, T/C (second compound 3.16 µM, first compound 1 µM) 28.8% | viability, T/C (second compound 3.16 µM, first compound 3.16 µM) 16.5% | viability, T/C [11] 49.6% | viability, T/C [12] 42.7% | viability, T/C (second compound 10 µM, first compound 0.316 µM) 38.7% | viability, T/C (second compound 10 µM, first compound 1 µM) 25.4% | viability, T/C (second compound 10 µM, first compound 3.16 µM) 13.1%
520 nM: IC50 (second compound 0.0316 µM)
active: viability, T/C (second compound 0.0316 µM, first compound 10 µM) 9.17% | viability, T/C (second compound 0.1 µM, first compound 10 µM) 8.02% | viability, T/C (second compound 0.316 µM, first compound 10 µM) 8.48% | viability, T/C (second compound 1 µM, first compound 10 µM) 6.81% | viability, T/C (second compound 3.16 µM, first compound 10 µM) 7.2% | viability, T/C (second compound 10 µM, first compound 10 µM) 6.37%
< 31.6 nM: IC50 (second compound 10 µM)
513 nM: IC50 (second compound 1 µM)
556 nM: IC50 (second compound 0.1 µM)

Cn1ncnc1[C@H]1c2n[nH]c(=O)c3cc(F)cc(c23)N[C@@H]1c1ccc(F)cc1 + CC(Nc1ncnc2nc[nH]c12)c1cc2cccc(Cl)c2c(=O)n1-c1ccccc1
0.867 nM: IC50 (second compound 10 µM)
72.3 nM: IC50 (second compound 3.16 µM)
> 100 nM: IC50 (second compound 0.0316 µM) | IC50 (second compound 0.1 µM) | IC50 (second compound 0.316 µM) | IC50 (second compound 1 µM)
inactive: viability, T/C (second compound 0.0316 µM, first compound 0.000316 µM) 99% | viability, T/C (second compound 0.0316 µM, first compound 0.001 µM) 106% | viability, T/C (second compound 0.0316 µM, first compound 0.00316 µM) 72.5% | viability, T/C (second compound 0.0316 µM, first compound 0.01 µM) 86.4% | viability, T/C [1] 76.8% | viability, T/C [2] 51% | viability, T/C (second compound 0.1 µM, first compound 0.000316 µM) 108% | viability, T/C (second compound 0.1 µM, first compound 0.001 µM) 101% | viability, T/C (second compound 0.1 µM, first compound 0.00316 µM) 72.6% | viability, T/C (second compound 0.1 µM, first compound 0.01 µM) 66.1% | viability, T/C [3] 74.9% | viability, T/C [4] 67% | viability, T/C (second compound 0.316 µM, first compound 0.000316 µM) 82.4% | viability, T/C (second compound 0.316 µM, first compound 0.001 µM) 82.6% | viability, T/C (second compound 0.316 µM, first compound 0.00316 µM) 85.1% | viability, T/C (second compound 0.316 µM, first compound 0.01 µM) 70.8% | viability, T/C [5] 54.5% | viability, T/C [6] 65.4% | viability, T/C (second compound 1 µM, first compound 0.000316 µM) 84.6% | viability, T/C (second compound 1 µM, first compound 0.001 µM) 80.1% | viability, T/C (second compound 1 µM, first compound 0.00316 µM) 66.1% | viability, T/C (second compound 1 µM, first compound 0.01 µM) 62% | viability, T/C [7] 62.5% | viability, T/C [8] 57.5% | viability, T/C (second compound 3.16 µM, first compound 0.000316 µM) 81.1% | viability, T/C (second compound 3.16 µM, first compound 0.001 µM) 71% | viability, T/C (second compound 3.16 µM, first compound 0.00316 µM) 60.1% | viability, T/C (second compound 3.16 µM, first compound 0.01 µM) 58.4% | viability, T/C [9] 56.3% | viability, T/C [10] 46.6% | viability, T/C (second compound 10 µM, first compound 0.000316 µM) 61.6% | viability, T/C (second compound 10 µM, first compound 0.001 µM) 41.7% | viability, T/C (second compound 10 µM, first compound 0.00316 µM) 45% | viability, T/C (second compound 10 µM, first compound 0.01 µM) 40.5% | viability, T/C [11] 35.5% | viability, T/C [12] 29.4%
